Experiments:
[1] = system: Daudi (human B-lymphoblastoid cell from Burkitt's Lymphoma patient); assay: Inhibition of cellular proliferation, Daudi cells (CellTiter-Glo); type: cell-based; settings: EC50 measured as illustrated in Example 150 (CellTiter-Glo)
Procedure: (§1) The SupT1 cells were seeded in Costar (Tewksbury, Mass.) 3093 96 well tissue culture treated white walled/clear bottom plates. A nine point dose response dilution series from 10 uM to 1 nM was performed and cell viability was determined after four days as indicated using the CellTiter-Glo® assay (CTG; Promega, Madison, Wis., United States of America) following the manufacturer's recommendations. Plates were read on a BioTek (Winooski, Vt.) Syngergy2 multi-mode plate reader. The Relative Light Units (RLU) were plotted as a result of variable molar concentration and data was analyzed using Graphpad (LaJolla, Calif.) Prism 5 statistical software to determine the IC50 for each compound.
(§2) The compounds listed in Table 1 were tested for the inhibition of cellular proliferation using SupT1 (human T-cell lymphoblastic leukemia) and Daudi (human B-lymphoblastoid cell from Burkitt's Lymphoma patient).

[2] = system: SupT1 cells (human T-cell lymphoblastic leukemia); assay: Inhibition of cellular proliferation, SupT1 cells (CellTiter-Glo); type: cell-based; settings: SUP-T1, 96 h, cell viability after four days, nine point dilution series 10 uM to 1 nM
Procedure: as §1, §2

SMILES	EC50 [1] [nM]	EC50 [2] [nM]
CC(C)N1CCN(c2ccc(Nc3ncc4cc5n(c4n3)C3(CCCC3)CNC5=O)nn2)CC1 [RRR]	2010	278
CCN(CC)C1CCN(C2CCN(c3ccc(Nc4ncc5cc6n(c5n4)C4(CCCCC4)CNC6=O)nc3)CC2)C1 (centres unmarked) [RR]	158	102
C[C@H]1CN(c2ccc(Nc3ncc4cc5n(c4n3)C3(CCCCC3)CNC5=O)nc2)CCN1C [R]	299	43
O=C1NCC2(CCCC2)n2c1cc1cnc(Nc3ccc(N4CCOCC4)nn3)nc12 [SSS]	> 3000	305
CN(C)C1CCN(c2ccc(Nc3ncc4cc5n(c4n3)C3(CCCCC3)CNC5=O)nn2)CC1 [SS]	967	11
C[C@@H](O)CN1CCN(c2ccc(Nc3ncc4cc5n(c4n3)C3(CCCCC3)CNC5=O)nc2)CC1 [S]	634	110
CN(C)C1CCN(c2ccc(Nc3ncc4cc5n(c4n3)C3(CCCC3)CNC5=O)nn2)CC1 [TTT]	3300	587
CC(C)N1CCN(c2ccc(Nc3ncc4cc5n(c4n3)C3(CCCCC3)CNC5=O)nn2)CC1 [TT]	589	92
CN1CCN(c2ccc(Nc3ncc4cc5n(c4n3)C3(CCCCC3)CNC5=O)nc2)CC1 [T]	392	113
CC(C)[C@H]1CNC(=O)c2cc3cnc(Nc4ccc(N5CCNCC5)cn4)nc3n21 [UUU]	1420	311
CCN(CC)C1CCN(c2ccc(Nc3ncc4cc5n(c4n3)C3(CCCC3)CNC5=O)nc2)C1 (centres unmarked) [UU]	3160	228
O=C1NCC2(CCCCC2)n2c1cc1cnc(Nc3ccc(N4CCC(N5CCOCC5)CC4)cn3)nc12 [U]	363	48
CCC(C)[C@@H]1CNC(=O)c2cc3cnc(Nc4ccc(N5CCNCC5)cn4)nc3n21 (some centres unmarked) [VVV]	1070	224
C[C@@H](O)CN1CCN(c2ccc(Nc3ncc4cc5n(c4n3)C3(CCCC3)CNC5=O)nc2)C[C@@H]1C [VV]	683	115
C[C@@H]1CN(c2ccc(Nc3ncc4cc5n(c4n3)C3(CCCCC3)CNC5=O)nc2)CCN1 [V]	194	35
CC(C)C[C@@H]1CNC(=O)c2cc3cnc(Nc4ccc(N5CCNCC5)cn4)nc3n21 [WWW]	1270	264
O=C1NCC2(CCCC2)n2c1cc1cnc(Nc3ccc(N4CCC(N5CCOCC5)CC4)cn3)nc12 [WW]	1690	77
CC1CN(c2ccc(Nc3ncc4cc5n(c4n3)C3(CCCCC3)CNC5=O)nc2)CCN1CC(C)(C)O (centres unmarked) [W]	731	57
CC(C)C[C@@H]1CNC(=O)c2cc3cnc(Nc4ccc(N5CCN(C)CC5)cn4)nc3n21 [XXX]	1170	270
C[C@H](O)CN1CCN(c2ccc(Nc3ncc4cc5n(c4n3)C3(CCCC3)CNC5=O)nc2)C[C@H]1C [XX]	499	94
O=C1NCC2(CCCCC2)n2c1cc1cnc(Nc3ccc(N4CCC(N5CCC(C(F)(F)F)CC5)CC4)cn3)nc12 [X]	318	36
CN(C)C1CCN(c2ccc(Nc3ncc4cc5n(c4n3)C3(CCCC3)CNC5=O)nc2)CC1 [YY]	356	97
O=C1NCC2(CCCCC2)n2c1cc1cnc(Nc3ccc(C(=O)N4CCNCC4)cn3)nc12 [Y]	548	85
CN1CCN(c2ccc(Nc3ncc4cc5n(c4n3)C3(CCCC3)CNC5=O)nc2)CC1 [ZZ]	584	272
C[C@H](O)CN1[C@H](C)CN(c2ccc(Nc3ncc4cc5n(c4n3)C3(CCCCC3)CNC5=O)nc2)C[C@@H]1C [Z]	359	87
